For the molecule `O=[N+]([O-])/C(=C/c1ccccc1[N+](=O)[O-])c1ccccc1`, the melting point (in general, the temperature of the solid-liquid transition) is 107 °C.
In the case of `COC(=O)c1csc2c(C(F)(F)F)cc(Cl)nc12`, the melting point lay in the range of 110 to 111 °C.
On to `O=C(Nc1ccccc1)OCc1c([N+](=O)[O-])cccc1[N+](=O)[O-]`, for which the melting point was 138 °C.
The molecule `CS(=O)(=O)c1ccc(C(C=O)C=O)c([N+](=O)[O-])c1` had a melting point of 213 to 219 °C.
Molecule `Cc1cc(-c2ccccc2)n2nc(C(F)(F)F)nc2n1` yielded a melting point of 89 °C.
The molecule `OC1CN2CCCC(O)C2C1O` (stereo not drawn) displayed a melting point of 144 °C.
In turn, `C=CC1CN2CCC1CC2C(=O)c1ccnc2ccc(OC)cc12` (stereo not drawn) yielded a melting point of 108 °C.
Turning to `O=C(c1ccccc1)c1ccc(O)c(O)c1`, the melting point fell in the range of 144 to 148 °C.
With `CC(C)(C)OC(=O)NC(COC1CCCCO1)CS(=O)(=O)c1ccccc1` (stereo not drawn), the melting point was in the range of 100 to 104 °C.
Take `CSc1nc(=O)n2ccc(C)cc2n1`: the melting point lay within 170 to 173 °C.
Regarding `N#CC1=C(N)Oc2c(c(C(F)(F)F)nn2-c2ccccc2)C1c1ccccc1Cl` (stereo not drawn), the melting point amounted to 166 °C.
With `Oc1ncnc2[nH]ncc12` the figure was 350 °C; with `NNC(=O)c1ccc(-c2ccccc2F)cc1`, 153 to 155 °C.
With `COc1ccc(SSc2ccc(OC)cc2)cc1` the figure was 40 to 42 °C.
Next, `CN1CC2CC(C1)c1cccc(=O)n1C2` (stereo not drawn): 137 °C; `O=C1c2cc3ccccc3cc2C(=O)c2cc3ccccc3cc21`: 391 to 394 °C; `CCc1c(CC)c(CC)c(CC)c(CC)c1CC`: 129 °C.
`CC(CO)(CO)CO` gave a melting point of 204 °C.
`COC1C(O)C(C)OC(OC2CCC3(C)C(CCC4C3CCC3(C)C(C5=CC(=O)OC5)CCC43O)C2)C1O` (stereo not drawn): the melting point was determined as 221 °C.
With `CC(=O)Nc1ccc2c(c1)Cc1cc([N+](=O)[O-])ccc1-2`, the melting point is 262 °C.
`COC(=O)c1sccc1S(=O)(=O)NC(=O)Nc1nc(C)nc(OC)n1` had a melting point of 176 °C.
As for `COc1cccc(C2NC(=O)NC(C)=C2C(=O)OC(C)C)c1OC` (stereo not drawn), the melting point amounted to 167 °C.
On to `CC(=O)N1CC(c2ccccc2)C=C1c1ccccc1` (stereo not drawn), for which the melting point came to 105 °C.
Consider `Nc1ccc(SC(F)(F)F)c(Cl)c1`, for which the melting point amounted to 43 °C.
Consider `BrC(Br)=Cc1ccccc1`, for which the melting point turned out to be 75 °C.
As for `O=[N+]([O-])OC(CO)CO`, the melting point was determined as 54 °C.
`O=S(=O)(Cl)c1c(Cl)cccc1Cl`: the melting point is 53 °C.
With `C[C@@H]1C(=O)[C@]23C[C@H]1CC[C@H]2[C@@]1(CCC[C@@]2(C)COC(=O)[C@H]21)COC3=O` the figure was 297 °C; with `O=C(O)CC1(CC(=O)O)CCCCC1`, 181 to 185 °C.
Consider `O=C(O)Cc1ccc2ccccc2c1`, for which the melting point came to 142 °C.
In turn, `S=C=Nc1ccccc1Br` yielded a melting point of 20 °C.
`CCCCCCCCC1CCCC1` showed a melting point of -44 °C.
Take `CCc1ccc(CCO)nc1`: the melting point came out at 42 °C.
As for `N#CC(C#N)=C1CC(c2ccc(Cl)cc2)=C(C#N)C(=N)N1c1ccccc1`, the melting point was in the range of 290 to 295 °C.
The molecule `Cc1nc2cc(O)ccc2s1` came in with a melting point of 186 °C.
Next, `O=C(O)c1ccccc1-c1ccco1`: 87 °C; `O=c1c(Br)c(Br)cnn1-c1ccccc1`: 143 to 144 °C; `O=C(Cl)c1ccc(Oc2ccccc2)cc1`: 22 to 23 °C.
Take `c1ccc(CSc2nnc(SCc3ccccc3)nn2)cc1`: the melting point was in the range of 137 to 139 °C.
Next, `CC(=O)Nc1cc(C)no1`: 161 to 162 °C; `BrCc1ccc2nonc2c1`: 77 to 80 °C.
Molecule `CCCCCCCCCC(=O)OC(=O)CCCCCCCCC` came in with a melting point of 24.7 °C.
The molecule `Cc1ccccc1NC(N)=O` came in with a melting point of 190 to 195 °C.
Regarding `O=C(Cl)c1ccc(-c2cccs2)s1`, the melting point fell in the range of 73.3 to 74.4 °C.
Next, `CC1CCC2(C)C3=C(C(=O)C4(CC4C)C(O)C3=O)C(O)C(O)C2C1C` (stereo not drawn): 177 to 178 °C.
With `Nc1ccc(C(=O)O)cn1` the figure was 312 °C; with `COC(=O)c1cncc(C)c1`, 44 °C.
Regarding `CC(=O)Nc1ccc(-c2ccc(NC(C)=O)cc2NC(C)=O)c(NC(C)=O)c1`, the melting point turned out to be 283 °C.
`O=C(O)c1cncc(-c2ccco2)c1` registered a melting point of 261 to 263 °C.
On to `Cc1c(C(=O)O)sc2sc(C(=O)O)c(C)c12`, for which the melting point came to 360 °C.
`CC(C)CC(C)(O)C#CC(C)(O)CC(C)C` (stereo not drawn) returned a melting point of 42 to 44 °C.
With `N#CCN(CC#N)CC#N` the figure was 126 °C; with `N#CCCC1CCCCCCCCCCC1=O` (stereo not drawn), 60 to 61 °C.
For the molecule `OCC1CCCCN1` (stereo not drawn), the melting point is 69 °C.
Regarding `CNC(=S)NCO`, the melting point turned out to be 88 °C.
Next, `Cc1ccc(Cl)c(C(=O)O)c1`: 148 to 150 °C; `c1ccc(CC2=NCCN2)cc1`: 174 °C; `COc1ccc(/C=C2\CCCC3=C2NC(=S)NC3c2ccc(OC)cc2)cc1` (stereo not drawn): 184 °C.
Next, `COc1c(Cl)cccc1Cl`: 10 to 11 °C; `Cc1nn(C)c(Cl)c1S(=O)(=O)Cl`: 35 °C.
The molecule `FC(F)(F)C(F)(Cl)C(F)(Cl)C(F)(F)F` (stereo not drawn) displayed a melting point of -68 °C.
Next, `CC(=O)c1sc(-c2ccc(C(C)(C)C)cc2)cc1N`: 179 to 181 °C.
In the case of `CCOC(=O)C(Cl)=NNc1ccccc1`, the melting point lay in the range of 77 to 80 °C.
`CC(=O)Nc1ccc2c(c1)CCC2=O` yielded a melting point of 172 °C.
As for `N=C1NC(=O)C(=NNc2ccc(Br)cc2)S1`, the melting point was found to be 284 °C.
Next, `C[C@](N)(CO)C(=O)O`: 286 to 288 °C; `CC(C)(C)c1cc(O)c(O)c(C(C)(C)C)c1`: 96 to 99 °C.
Next, `Cc1ccc(COc2ccc(CC#N)cc2)cc1`: 121 to 123 °C; `O=C(O)COc1ccc(Cl)cc1CO`: 141 °C.
As for `Oc1cc(C(F)(F)F)nc(S)n1`, the melting point is 251 °C.
With `CC1=C(C(=O)OCC(C)C)C(c2ccccc2)NC(=S)N1` (stereo not drawn) the figure was 153 °C.
Molecule `O=[N+]([O-])c1ccc(C=Cc2cccc(/C=C\c3ccc([N+](=O)[O-])cc3[N+](=O)[O-])c2)c([N+](=O)[O-])c1` showed a melting point of 243 °C.
Molecule `FC(F)(F)c1ccc(N2CCCNCC2)nc1` came in with a melting point of 50 to 53 °C.
Consider `FC(F)(F)c1ccc(-c2nnn[nH]2)cc1`, for which the melting point amounted to 226 °C.
Take `Cn1nnc2cc(C(=O)O)ccc21`: the melting point stood at 250 °C.
Molecule `O=C(O)C(O)C(O)C(O)C(O)C(=O)O` (stereo not drawn) came in with a melting point of 230 °C.
In turn, `O=C1OC(=O)c2cc([N+](=O)[O-])cc3cccc1c23` yielded a melting point of 247 to 254 °C.
Next, `CC(=O)Nc1cc(Cl)c(Cl)cc1NC(C)=O`: 255 to 258 °C; `Cc1cnc(C)cn1`: 15 °C.
Consider `CC1(C)C2CCC1(C)C(O)C2` (stereo not drawn), for which the melting point turned out to be 214 °C.
`COc1cc(Cl)c(Cl)cc1OC`: the melting point amounted to 83 °C.
On to `CCOC(=O)CC(/C=C1\C(=O)C2(C)CCC1C2(C)C)(/C=C1\C(=O)C2(C)CCC1C2(C)C)C(=O)OCC` (stereo not drawn), for which the melting point is 105 °C.
As for `O=NN(CCCl)C(=O)NCCCl`, the melting point came to 31 °C.
Next, `COc1cc(Br)c(C=CC(=O)O)cc1OC`: 253 to 259 °C; `NNC(=O)c1ccc(I)cc1`: 173 to 175 °C; `CC=C(C(=CC)c1ccc(O)cc1)c1ccc(O)cc1`: 228 °C.
As for `CC(=O)c1ccc(OCCCCCBr)cc1O`, the melting point lay within 63 to 66 °C.
Take `CCOc1cccc(OCC(F)(F)F)c1C#N`: the melting point lay within 78 to 80 °C.
As for `Cc1cc(Cl)ccc1[N+](=O)[O-]`, the melting point lay in the range of 23 to 25 °C.
Molecule `O=Cc1ccc(Br)cc1F` had a melting point of 61 °C.
With `O=C(CBr)c1ccc2c(c1)OCO2` the figure was 91 to 93 °C; with `NS(=O)(=O)c1ccc(N=C=S)cc1`, 210 to 212 °C.
For `Cc1cc(C)c(C(C)C)cc1C`, the melting point is 21 °C.
Consider `CN(N=O)C1=CC(=O)C2(C)CCC1C2(C)C` (stereo not drawn), for which the melting point was 167 °C.
As for `CCCNC(=O)C(C(F)(F)F)C(F)(F)F`, the melting point was in the range of 105 to 107 °C.
As to `O=Cc1cn2ccsc2n1`, the melting point was found to be 71 °C.
Next, `CC12CCC(C(C(=O)O)C1=O)C2(C)C` (stereo not drawn): 128 °C; `N#Cc1ccc(CN2CCOCC2)cc1`: 86 to 87 °C; `NC(=O)Cc1ccccc1`: 157 °C.
Molecule `CC(=O)OC1CCC2C3CCC4=CC(=O)CCC4(C)C3CCC12C` (stereo not drawn) had a melting point of 140 °C.
The molecule `CN1C(=O)Cc2cc(Br)ccc21` yielded a melting point of 132 to 133 °C.
`Cc1ccc(S(=O)(=O)N(C)N=O)cc1` came in with a melting point of 60 °C.
With `O=Cc1c(Cl)[nH]n(-c2ccccc2)c1=O`, the melting point came out at 167 °C.
On to `O=C(COc1ncn(-c2ccc(Cl)cc2)n1)NNC(=S)NCc1ccccc1`, for which the melting point is 133 to 135 °C.
On to `Cc1nccn1-c1ccccc1N`, for which the melting point lay within 132 to 134 °C.
Molecule `c1n[nH]c2c1CSC2` returned a melting point of 132 to 133 °C.
In the case of `C1=CCc2ccccc2C1`, the melting point stood at 25 °C.
With `C1CC12CC2` the figure was -135 °C.
For the molecule `CCCCCCCCCCOc1ccc(/C=N/c2ccc(/C=C/C(=O)OCC)cc2)cc1`, the melting point lay within 114 to 115 °C.
`Cn1ncc(Br)c1C=O`: the melting point stood at 70 °C.
`Nc1ccc(-c2ccc(-c3ccc(N)cc3)cc2)cc1`: the melting point came to 247 °C.
For `Cc1ccc(C(c2ccc(C)o2)c2ccccc2Br)o1`, the melting point was found to be 57 °C.
In the case of `CCOC(=O)c1cnc(N)nc1C`, the melting point lay within 224 to 225 °C.

These data come from a melting point compilation (Tetko et al.).
